Data on ten compounds can be found in patent publication US5378689A, “Peptides having renin inhibitory activity, their preparation and use” (Sankyo Company, Limited, priority 1989, dated 1995).

One test has as its target T1, human renin (Homo sapiens, UniProt P00797).
T1 sequence (P00797 67-406): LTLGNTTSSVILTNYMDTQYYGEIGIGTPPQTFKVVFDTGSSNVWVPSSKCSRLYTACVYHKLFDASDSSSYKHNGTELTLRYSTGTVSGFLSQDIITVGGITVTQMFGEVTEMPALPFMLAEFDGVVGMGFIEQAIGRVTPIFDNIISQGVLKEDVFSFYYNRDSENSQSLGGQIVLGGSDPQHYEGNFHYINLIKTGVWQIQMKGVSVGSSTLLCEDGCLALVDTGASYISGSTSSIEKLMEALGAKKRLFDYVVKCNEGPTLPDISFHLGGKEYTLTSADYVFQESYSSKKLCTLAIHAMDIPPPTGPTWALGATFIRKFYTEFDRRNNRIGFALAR
In words: Inhibition of renin activity (human renin, sheep angiotensinogen, remaining angiotensin I assayed). Type of test: biochemical. To be noted: 1×10^-7 M test compound, pH 7.3, 37° C., 10 minutes, mean of 3 or 4 experiments. The procedure: The ability of various compounds of the invention to inhibit the activity of renin was determined according to the following method, which follows essentially the procedure of Kokubu et al. [Hypertension, 5, 191-197 (1983)].
Specifically, each test compound was dissolved in 60% v/v aqueous ethanol. Human renin activity in the presence and absence of each compound was measured using sheep angiotensinogen. The total volume of 1 ml of assay mixture contained 0.1 mole/liter phosphate buffer (pH 7.3), human renin (equivalent to 0.5 ng angiotensin I per ml per minute), sheep angiotensinogen (equivalent to 200 ng angiotensin I), 1×10^-7 M of the test compound, 6% v/v ethanol and angiotensinase inhibitors (10 mmole/liter sodium ethylenediaminetetraacetate and 3.4 mmole/liter 8-hydroxyquinoline). The mixture was allowed to react for 10 minutes at 37° C., and then the reaction was stopped by placing the reaction tube in a boiling water bath for 5 minutes. The mixture was then centrifuged and the supernatant (0.05-0.1 ml) was used to assay remaining angiotensin I.
An identical experiment was carried out, as a control, except that the test compound was omitted. From the values obtained were calculated the % inhibition of renin activity achieved by each test compound. The results are shown in the following Table 2, in which the compounds of the invention are identified by the numbers of the Examples given hereafter in which are described their preparation. The values given are the mean of 3 or 4 experiments.
As to `CCCCNC(=O)[C@H](C)C[C@H](O)[C@H](CC1CCCCC1)NC(=O)[C@H](Cc1cscn1)NC(=O)[C@@H](CC(=O)N(C)Cc1ccccc1)Cc1ccccc1` [Example 8, (2R, 4S, 5S)-5-{N-[2(R)-Benzyl-3-(N-benzyl-N-methylaminocarbonyl)propionyl]-3-(4-thiazolyl)-L-alanyl}-amino-N-butyl-6-cyclohexyl-4-hydroxy-2-methylhexanamide], the “Inhibitory activity (%) Against Human Renin (1 × 10^-7 M)” value is 96.2%.

`CNC(=O)[C@H](C)C[C@H](O)[C@H](CC1CCCCC1)NC(=O)[C@H](Cc1cscn1)NC(=O)[C@@H](CC(=O)N(C)Cc1ccccc1)Cc1ccccc1` [Example 14, (2R, 4S, 5S )-5-{N-[2(R)-Benzyl-3-(N-benzyl-N-methylaminocarbonyl)propionyl]-3-(4-thiazolyl)-L-alanyl}-amino-6-cyclohexyl-4-hydroxy-2,N-dimethylhexanamide]: the “Inhibitory activity (%) Against Human Renin (1 × 10^-7 M)” value was 95.7%.

Consider `CCCCNC(=O)[C@H](C)C[C@H](O)[C@H](CC1CCCCC1)NC(=O)[C@H](Cc1cscn1)NC(=O)[C@@H](CC(=O)N1CCOCC1)Cc1ccccc1` [Example 6], for which the “Inhibitory activity (%) Against Human Renin (1 × 10^-7 M)” value came out at 96.1%.

Take `CCCCNC(=O)[C@@H](C[C@H](O)[C@H](CC1CCCCC1)NC(=O)[C@H](Cc1cscn1)NC(=O)[C@@H](CC(=O)N1CCOCC1)Cc1ccc(OC)cc1)C(C)C` [Example 4]: the “Inhibitory activity (%) Against Human Renin (1 × 10^-7 M)” value amounted to 96.9%.

The same test, now with this note: 1×10^-7 M test compound, pH 7.3, 37° C., 10 minutes, mean of 3 or 4 experiments, read-out: Inhibitory activity (%) Against Human Renin (1 × 10^-7 M).
Turning to `CCCCNC(=O)[C@@H](C[C@H](O)[C@H](CC1CCCCC1)NC(=O)[C@H](Cc1cscn1)NC(=O)[C@@H](CC(=O)N(C)Cc1ccccc1)Cc1ccccc1)C(C)C` [Example 16, (2S, 4S, 5S)-5-{N-[2(R)-Benzyl-3-(N-benzyl-N-methylaminocarbonyl)propionyl]-3-(4-thiazolyl)-L-alanyl}amino-N-butyl-6-cyclohexyl-4-hydroxy-2-isopropylhexanamide], the inhibition at 0.1 µM came out at 94.8%.

For `CNC(=O)[C@H](C)C[C@H](O)[C@H](CC1CCCCC1)NC(=O)[C@H](Cc1cscn1)NC(=O)[C@@H](CC(=O)N1CCOCC1)Cc1ccccc1` [Example 5, (2R, 4S, 5S)-5-{N-[2(R)-Benzyl-3-(morpholinocarbonyl)-propionyl]-3-(4-thiazolyl)-L-alanyl}amino-6-cyclohexyl-4-hydroxy-2,N-dimethylhexanamide], the inhibition at 0.1 µM amounted to 95.6%.

With `CCCCNC(=O)[C@@H](C[C@H](O)[C@H](CC1CCCCC1)NC(=O)[C@H](Cc1cscn1)NC(=O)[C@@H](CC(=O)N1CCOCC1)Cc1ccccc1)C(C)C` [Example 2, (2S, 4S, 5S)-5-{N-[2(R)-Benzyl-3-(morpholinocarbonyl)-propionyl]-3-(4-thiazolyl)-L-alanyl}amino-N-butyl-6-cyclohexyl-4-hydroxy-2-isopropylhexanamide], the inhibition at 0.1 µM came to 96%.

For `CNC(=O)[C@@H](C[C@H](O)[C@H](CC1CCCCC1)NC(=O)[C@H](Cc1cscn1)NC(=O)[C@@H](CC(=O)N1CCOCC1)Cc1ccccc1)C(C)C` [Example 1, (2S, 4S, 5S)-5-{N-[2(R)-Benzyl-3-(morpholinocarbonyl)-propionyl]-3-(4-thiazolyl)-L-alanyl}amino-6-cyclohexyl-4-hydroxy-2-isopropyl-N-methylhexanamide], the inhibition at 0.1 µM was 95.2%.

For the compound `CCCCNC(=O)[C@H](C)C[C@H](O)[C@H](CC1CCCCC1)NC(=O)[C@H](Cc1cscn1)NC(=O)[C@@H](CC(=O)N(C)Cc1ccccc1)Cc1ccc(OC)cc1` [Example 11, (2R, 4S, 5S)-N-Butyl-6-cyclohexyl-4-hydroxy-5-{N-[2(R)-(4-methoxybenzyl)-3-(N-benzyl-N-methylaminocarbonyl)-propionyl]-3-(4-thiazolyl)-L-alanyl}amino-2-methylhexanamide], the inhibition at 0.1 µM was found to be 91.6%.

For the compound `CNC(=O)[C@@H](C[C@H](O)[C@H](CC1CCCCC1)NC(=O)[C@H](Cc1cscn1)NC(=O)[C@@H](CC(=O)N1CCOCC1)Cc1ccc(OC)cc1)C(C)C` [Example 3, (2S, 4S, 5S)-5-{N-[2(R)-(4-Methoxybenzyl)-3-(morpholinocarbonyl)propionyl]-3-(4-thiazolyl)-L-alanyl}amino-6-cyclohexyl-4-hydroxy-2-isopropyl-N-methylhexanamid], the inhibition at 0.1 µM was determined as 93.1%.
